# Measurements taken from ChEMBL document CHEMBL1155645, “Microbial transformations of the antimelanoma agent betulinic acid” (2000).
# How the values were obtained:
# [1] = Cytotoxicity against human Mel1 cells; assay type: functional; details: read-out: ED50 (the source's name)
# [2] = Cytotoxicity against human Mel2 cells; assay type: functional; details: read-out: ED50 (the source's name)
Compound,EC50 [1],EC50 [2]
C=C(C)[C@@H]1CC[C@]2(C(=O)O)CC[C@]3(C)[C@H](CC[C@@H]4[C@@]5(C)CC[C@H](O)C(C)(C)[C@@H]5[C@@H](O)[C@H](O)[C@]43C)[C@@H]12,10.9 µg/mL,16.8 µg/mL
C=C(C)[C@@H]1CC[C@]2(C(=O)O)CC[C@]3(C)[C@H](CC[C@@H]4[C@@]5(C)CC[C@H](O)C(C)(C)[C@@H]5CC[C@]43C)[C@@H]12 [BETULINIC ACID],3.3 µg/mL,1 µg/mL
C=C(C)[C@@H]1CC[C@]2(C(=O)O)CC[C@]3(C)[C@H](CC[C@@H]4[C@@]5(C)[C@H](O)C[C@H](O)C(C)(C)[C@@H]5C[C@H](O)[C@]43C)[C@@H]12,> 20 µg/mL,> 20 µg/mL
C=C(C)[C@@H]1CC[C@]2(C(=O)O)CC[C@]3(C)[C@H](CC[C@@H]4[C@@]5(C)CC[C@H](O)C(C)(C)[C@@H]5C[C@H](O)[C@]43C)[C@@H]12,17.1 µg/mL,7.2 µg/mL
C=C(C)[C@@H]1CC[C@]2(C(=O)O)CC[C@]3(C)[C@H](CC[C@@H]4[C@@]5(C)CCC(=O)C(C)(C)[C@@H]5CC[C@]43C)[C@@H]12 [BETUNOLIC ACID],16 µg/mL,0.1 µg/mL
